Experimental data reported in ChEMBL document CHEMBL3991601, “The target landscape of clinical kinase drugs” (Science, 2017).
Active and inactive are the calls of the source.

Legend:
[1] = molecular target: Tyrosine-protein kinase CSK (Homo sapiens, UniProt P41240)
[2] = molecular target: T1, Bifunctional phosphoribosylaminoimidazole carboxylase/phosphoribosylaminoimidazole succinocarboxamide synthetase (Homo sapiens, UniProt P22234)
T1 sequence (P22234 whole entry): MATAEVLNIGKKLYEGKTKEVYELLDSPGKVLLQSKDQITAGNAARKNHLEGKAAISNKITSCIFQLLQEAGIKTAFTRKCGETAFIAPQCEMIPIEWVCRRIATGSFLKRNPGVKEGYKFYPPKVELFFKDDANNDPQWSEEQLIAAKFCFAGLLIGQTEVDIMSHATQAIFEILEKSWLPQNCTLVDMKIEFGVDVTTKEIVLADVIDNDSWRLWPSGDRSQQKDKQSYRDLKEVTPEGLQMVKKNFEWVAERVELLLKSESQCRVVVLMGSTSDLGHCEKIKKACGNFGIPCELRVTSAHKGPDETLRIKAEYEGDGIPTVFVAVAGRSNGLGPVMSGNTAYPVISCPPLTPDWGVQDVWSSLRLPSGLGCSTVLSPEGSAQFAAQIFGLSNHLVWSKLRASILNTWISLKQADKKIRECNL

[3] = molecular target: T2, NUAK family SNF1-like kinase 2 (Homo sapiens, UniProt Q9H093)
T2 sequence (Q9H093 whole entry): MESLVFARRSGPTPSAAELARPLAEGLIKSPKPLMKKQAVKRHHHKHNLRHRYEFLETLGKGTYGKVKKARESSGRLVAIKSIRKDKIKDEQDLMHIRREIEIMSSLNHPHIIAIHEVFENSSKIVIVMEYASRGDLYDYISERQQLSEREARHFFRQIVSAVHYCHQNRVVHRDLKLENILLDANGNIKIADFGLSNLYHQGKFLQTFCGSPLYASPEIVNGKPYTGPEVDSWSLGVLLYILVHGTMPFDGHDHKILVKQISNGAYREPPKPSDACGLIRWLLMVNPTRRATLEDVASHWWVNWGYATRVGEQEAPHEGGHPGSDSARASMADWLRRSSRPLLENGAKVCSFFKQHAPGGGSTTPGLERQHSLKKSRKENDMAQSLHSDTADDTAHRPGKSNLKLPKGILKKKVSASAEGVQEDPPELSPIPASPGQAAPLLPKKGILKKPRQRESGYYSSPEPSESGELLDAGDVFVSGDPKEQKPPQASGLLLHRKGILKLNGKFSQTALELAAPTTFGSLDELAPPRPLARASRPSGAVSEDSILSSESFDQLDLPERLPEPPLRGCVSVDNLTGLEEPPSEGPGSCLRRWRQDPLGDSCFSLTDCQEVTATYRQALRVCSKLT

[4] = molecular target: TRAF2 and NCK-interacting protein kinase (Homo sapiens, UniProt Q9UKE5)
TRAF2 and NCK-interacting protein kinase, sequence (Q9UKE5 whole entry): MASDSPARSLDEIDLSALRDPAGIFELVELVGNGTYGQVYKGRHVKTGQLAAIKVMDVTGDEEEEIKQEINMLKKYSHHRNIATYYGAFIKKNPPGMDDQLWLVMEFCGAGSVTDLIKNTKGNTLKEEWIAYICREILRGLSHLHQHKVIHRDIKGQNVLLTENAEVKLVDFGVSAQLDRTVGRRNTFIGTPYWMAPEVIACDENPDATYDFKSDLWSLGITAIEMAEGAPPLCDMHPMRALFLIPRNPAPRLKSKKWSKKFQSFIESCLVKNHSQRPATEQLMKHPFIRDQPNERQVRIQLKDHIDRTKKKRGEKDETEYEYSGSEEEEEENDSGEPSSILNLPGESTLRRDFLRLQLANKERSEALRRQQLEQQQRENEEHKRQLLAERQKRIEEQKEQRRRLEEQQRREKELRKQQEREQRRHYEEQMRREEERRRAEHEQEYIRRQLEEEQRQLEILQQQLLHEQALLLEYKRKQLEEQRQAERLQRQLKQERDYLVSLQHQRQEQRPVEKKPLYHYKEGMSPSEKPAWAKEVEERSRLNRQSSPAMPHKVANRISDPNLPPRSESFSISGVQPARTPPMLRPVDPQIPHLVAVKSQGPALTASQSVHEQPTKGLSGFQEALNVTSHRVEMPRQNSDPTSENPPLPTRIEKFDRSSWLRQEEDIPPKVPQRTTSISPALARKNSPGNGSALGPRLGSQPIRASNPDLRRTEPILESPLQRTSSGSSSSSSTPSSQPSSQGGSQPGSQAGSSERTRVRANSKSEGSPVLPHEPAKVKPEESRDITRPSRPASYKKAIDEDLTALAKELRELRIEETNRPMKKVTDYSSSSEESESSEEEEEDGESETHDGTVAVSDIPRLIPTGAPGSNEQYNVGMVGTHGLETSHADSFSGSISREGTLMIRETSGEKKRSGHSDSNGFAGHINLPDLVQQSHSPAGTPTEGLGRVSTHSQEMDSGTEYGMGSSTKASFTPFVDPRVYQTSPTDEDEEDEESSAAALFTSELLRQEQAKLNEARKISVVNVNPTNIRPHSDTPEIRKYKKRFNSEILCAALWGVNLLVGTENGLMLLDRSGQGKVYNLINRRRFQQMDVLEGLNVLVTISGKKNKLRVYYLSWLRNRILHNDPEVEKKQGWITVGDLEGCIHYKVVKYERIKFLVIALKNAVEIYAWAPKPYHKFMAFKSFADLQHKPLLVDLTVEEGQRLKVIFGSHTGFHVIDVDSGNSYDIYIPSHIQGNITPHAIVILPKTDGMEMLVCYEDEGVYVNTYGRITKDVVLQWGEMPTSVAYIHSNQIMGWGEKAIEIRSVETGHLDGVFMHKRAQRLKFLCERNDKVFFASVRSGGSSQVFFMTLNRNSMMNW

Ephrin type-A receptor 2 = Ephrin type-A receptor 2 (Homo sapiens, UniProt P29317)
Activin receptor type-1B = molecular target: T3, Activin receptor type-1B (Homo sapiens, UniProt P36896)
T3 sequence (P36896 whole entry): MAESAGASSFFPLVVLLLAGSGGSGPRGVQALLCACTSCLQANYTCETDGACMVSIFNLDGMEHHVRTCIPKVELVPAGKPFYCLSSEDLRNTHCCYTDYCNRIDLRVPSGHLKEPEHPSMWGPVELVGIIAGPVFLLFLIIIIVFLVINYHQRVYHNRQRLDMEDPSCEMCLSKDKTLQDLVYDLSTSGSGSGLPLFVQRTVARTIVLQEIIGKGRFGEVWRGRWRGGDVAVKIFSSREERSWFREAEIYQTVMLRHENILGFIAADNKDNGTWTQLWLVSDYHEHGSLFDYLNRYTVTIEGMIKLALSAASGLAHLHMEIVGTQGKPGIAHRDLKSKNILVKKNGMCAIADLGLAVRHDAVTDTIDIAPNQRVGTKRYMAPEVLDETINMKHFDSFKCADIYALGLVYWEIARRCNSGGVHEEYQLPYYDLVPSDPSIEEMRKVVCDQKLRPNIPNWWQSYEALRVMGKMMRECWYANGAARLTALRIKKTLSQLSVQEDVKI

Septin-9 = molecular target: T4, Septin-9 (Homo sapiens, UniProt Q9UHD8)
T4 sequence (Q9UHD8 whole entry): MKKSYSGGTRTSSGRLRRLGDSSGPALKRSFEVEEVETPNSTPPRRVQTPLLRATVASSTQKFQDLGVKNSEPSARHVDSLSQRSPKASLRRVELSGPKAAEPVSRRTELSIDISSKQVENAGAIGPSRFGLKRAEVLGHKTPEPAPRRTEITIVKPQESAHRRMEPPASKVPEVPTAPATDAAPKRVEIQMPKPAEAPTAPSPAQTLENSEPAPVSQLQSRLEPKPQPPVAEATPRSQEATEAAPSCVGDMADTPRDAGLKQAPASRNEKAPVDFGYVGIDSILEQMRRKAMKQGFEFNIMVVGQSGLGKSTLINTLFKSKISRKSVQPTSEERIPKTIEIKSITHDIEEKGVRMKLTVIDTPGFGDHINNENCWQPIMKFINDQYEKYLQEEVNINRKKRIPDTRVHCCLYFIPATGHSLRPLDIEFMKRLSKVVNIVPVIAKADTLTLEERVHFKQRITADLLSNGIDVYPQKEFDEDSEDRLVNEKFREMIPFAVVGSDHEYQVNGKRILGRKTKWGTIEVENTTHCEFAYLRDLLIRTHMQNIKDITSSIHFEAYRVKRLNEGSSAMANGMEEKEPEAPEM

[5] = molecular target: Casein kinase I isoform delta (Homo sapiens, UniProt P48730)
Casein kinase I isoform delta, sequence (P48730 whole entry, canonical isoform): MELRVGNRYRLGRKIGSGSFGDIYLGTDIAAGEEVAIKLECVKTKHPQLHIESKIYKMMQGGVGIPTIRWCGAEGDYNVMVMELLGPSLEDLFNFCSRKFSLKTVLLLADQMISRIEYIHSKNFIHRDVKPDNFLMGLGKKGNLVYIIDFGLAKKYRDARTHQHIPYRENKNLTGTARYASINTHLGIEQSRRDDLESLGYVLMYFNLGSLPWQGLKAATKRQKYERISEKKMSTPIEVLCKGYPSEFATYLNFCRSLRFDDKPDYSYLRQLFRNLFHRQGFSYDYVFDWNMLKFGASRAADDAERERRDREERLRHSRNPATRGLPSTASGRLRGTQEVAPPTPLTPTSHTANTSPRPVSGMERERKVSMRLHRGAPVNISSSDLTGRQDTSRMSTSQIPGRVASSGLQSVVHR

[6] = molecular target: Myosin light chain kinase, smooth muscle (Homo sapiens, UniProt Q15746)
Myosin light chain kinase, smooth muscle, sequence (Q15746 whole entry): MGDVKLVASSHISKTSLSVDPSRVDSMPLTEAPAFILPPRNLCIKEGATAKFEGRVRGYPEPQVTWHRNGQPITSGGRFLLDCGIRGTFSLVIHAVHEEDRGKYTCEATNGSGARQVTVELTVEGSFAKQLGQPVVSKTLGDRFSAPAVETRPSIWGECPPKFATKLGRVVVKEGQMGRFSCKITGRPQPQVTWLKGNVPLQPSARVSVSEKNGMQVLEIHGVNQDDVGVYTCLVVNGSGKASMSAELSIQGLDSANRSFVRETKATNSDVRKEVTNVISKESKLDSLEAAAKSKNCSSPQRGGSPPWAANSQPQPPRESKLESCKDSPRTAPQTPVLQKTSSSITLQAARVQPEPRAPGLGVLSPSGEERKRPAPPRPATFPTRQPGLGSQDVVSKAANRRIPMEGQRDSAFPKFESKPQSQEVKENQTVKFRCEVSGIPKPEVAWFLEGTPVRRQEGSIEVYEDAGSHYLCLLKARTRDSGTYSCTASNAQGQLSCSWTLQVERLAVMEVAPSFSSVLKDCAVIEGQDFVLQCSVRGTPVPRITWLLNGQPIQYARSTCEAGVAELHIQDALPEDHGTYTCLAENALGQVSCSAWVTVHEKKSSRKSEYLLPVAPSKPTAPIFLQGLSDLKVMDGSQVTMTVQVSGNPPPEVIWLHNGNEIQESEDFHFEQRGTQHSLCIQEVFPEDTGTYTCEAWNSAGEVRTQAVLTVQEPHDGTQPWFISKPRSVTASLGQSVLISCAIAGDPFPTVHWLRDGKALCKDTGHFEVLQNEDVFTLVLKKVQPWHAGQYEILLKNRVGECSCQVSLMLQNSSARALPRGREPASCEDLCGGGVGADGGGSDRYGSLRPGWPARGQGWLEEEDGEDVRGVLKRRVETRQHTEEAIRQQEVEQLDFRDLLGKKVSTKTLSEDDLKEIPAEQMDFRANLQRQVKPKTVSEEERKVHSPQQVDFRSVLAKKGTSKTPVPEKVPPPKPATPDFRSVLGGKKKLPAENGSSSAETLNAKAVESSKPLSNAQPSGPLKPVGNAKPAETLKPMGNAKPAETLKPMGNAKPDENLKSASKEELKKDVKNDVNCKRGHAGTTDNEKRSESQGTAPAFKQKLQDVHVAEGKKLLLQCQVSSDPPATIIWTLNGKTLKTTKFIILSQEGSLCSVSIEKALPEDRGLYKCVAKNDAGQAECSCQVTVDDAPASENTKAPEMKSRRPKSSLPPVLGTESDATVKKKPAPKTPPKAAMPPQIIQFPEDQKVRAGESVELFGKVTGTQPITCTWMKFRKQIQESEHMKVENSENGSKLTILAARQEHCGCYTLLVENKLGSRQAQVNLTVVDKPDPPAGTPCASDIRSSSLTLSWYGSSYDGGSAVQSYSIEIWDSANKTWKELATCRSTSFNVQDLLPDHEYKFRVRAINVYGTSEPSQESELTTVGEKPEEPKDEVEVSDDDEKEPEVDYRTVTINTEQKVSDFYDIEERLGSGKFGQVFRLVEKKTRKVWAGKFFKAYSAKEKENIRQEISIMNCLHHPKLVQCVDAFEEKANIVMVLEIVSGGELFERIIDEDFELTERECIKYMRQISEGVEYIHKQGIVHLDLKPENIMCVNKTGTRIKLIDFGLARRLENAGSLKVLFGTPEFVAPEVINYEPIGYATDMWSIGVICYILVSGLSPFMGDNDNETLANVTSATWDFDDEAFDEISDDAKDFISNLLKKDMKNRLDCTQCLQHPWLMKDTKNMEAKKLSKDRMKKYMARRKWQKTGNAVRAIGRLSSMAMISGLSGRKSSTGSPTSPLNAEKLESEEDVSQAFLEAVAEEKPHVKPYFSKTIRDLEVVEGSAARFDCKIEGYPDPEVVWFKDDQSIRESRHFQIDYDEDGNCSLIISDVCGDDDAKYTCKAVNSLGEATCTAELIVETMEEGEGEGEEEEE

Rab-like protein 3 = molecular target: T5, Rab-like protein 3 (Homo sapiens, UniProt Q5HYI8)
T5 sequence (Q5HYI8 whole entry): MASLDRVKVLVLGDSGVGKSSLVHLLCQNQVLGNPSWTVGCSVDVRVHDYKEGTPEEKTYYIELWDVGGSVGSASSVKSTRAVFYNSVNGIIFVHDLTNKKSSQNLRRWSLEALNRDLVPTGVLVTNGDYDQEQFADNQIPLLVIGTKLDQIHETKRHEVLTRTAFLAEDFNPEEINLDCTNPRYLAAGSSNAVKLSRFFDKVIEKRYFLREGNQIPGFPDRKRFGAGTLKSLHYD

[7] = molecular target: RAC-gamma serine/threonine-protein kinase (Homo sapiens, UniProt Q9Y243)
RAC-gamma serine/threonine-protein kinase, sequence (Q9Y243 whole entry): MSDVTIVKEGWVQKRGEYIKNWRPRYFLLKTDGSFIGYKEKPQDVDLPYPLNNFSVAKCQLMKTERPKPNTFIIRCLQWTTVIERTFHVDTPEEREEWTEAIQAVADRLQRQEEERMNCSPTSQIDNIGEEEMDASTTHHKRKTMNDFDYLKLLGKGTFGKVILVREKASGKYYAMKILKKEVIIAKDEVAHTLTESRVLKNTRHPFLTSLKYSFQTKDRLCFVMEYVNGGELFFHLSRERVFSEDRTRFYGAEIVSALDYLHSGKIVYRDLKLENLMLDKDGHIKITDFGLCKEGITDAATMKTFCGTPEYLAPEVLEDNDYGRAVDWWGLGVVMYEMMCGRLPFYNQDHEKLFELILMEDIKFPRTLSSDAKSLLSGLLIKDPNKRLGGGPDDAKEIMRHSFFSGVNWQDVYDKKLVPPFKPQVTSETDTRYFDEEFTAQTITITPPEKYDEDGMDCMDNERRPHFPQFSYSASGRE
Note: in the data inactive means no Kd found up to 30 µM.

Tyrosine-protein kinase CSK, sequence (P41240 whole entry): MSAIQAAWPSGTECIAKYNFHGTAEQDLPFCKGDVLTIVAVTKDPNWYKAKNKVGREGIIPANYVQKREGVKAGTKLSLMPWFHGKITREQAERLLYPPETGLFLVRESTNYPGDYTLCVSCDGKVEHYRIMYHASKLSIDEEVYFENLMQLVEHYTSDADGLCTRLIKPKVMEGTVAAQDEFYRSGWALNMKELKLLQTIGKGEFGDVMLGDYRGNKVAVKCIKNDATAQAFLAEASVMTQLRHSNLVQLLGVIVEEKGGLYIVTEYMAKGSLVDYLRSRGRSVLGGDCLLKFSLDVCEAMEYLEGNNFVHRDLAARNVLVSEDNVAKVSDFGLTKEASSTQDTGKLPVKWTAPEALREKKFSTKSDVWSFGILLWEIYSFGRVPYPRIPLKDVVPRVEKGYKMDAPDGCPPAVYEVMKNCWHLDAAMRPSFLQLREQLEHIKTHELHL

Row | SMILES | Kd [1] | Kd [2] | Kd [3] | Kd [4] | Kd (Ephrin type-A receptor 2) | Kd (Activin receptor type-1B) | Kd (Septin-9) | Kd [5] | Kd [6] | Kd (Rab-like protein 3) | Kd [7]
1 | Cn1ncc(Cl)c1-c1cc(C(=O)N[C@H](CN)Cc2cccc(F)c2)sc1Cl [AFURESERTIB] | > 30 µM (inactive) | > 30 µM (inactive) | > 30 µM (inactive) | > 30 µM (inactive) | > 30 µM (inactive) | > 30 µM (inactive) | > 30 µM (inactive) | > 30 µM (inactive) | > 30 µM (inactive) | > 30 µM (inactive) | 
2 | O=C(O)[C@]1(Cc2cccc(Nc3nccs3)n2)CC[C@@H](Oc2cccc(Cl)c2F)CC1 [MK-5108] | > 30 µM (inactive) | > 30 µM (inactive) | > 30 µM (inactive) | > 30 µM (inactive) |  | 0.425 µM (active) | > 30 µM (inactive) | > 30 µM (inactive) | > 30 µM (inactive) | > 30 µM (inactive) | > 30 µM (inactive)
3 | CO[C@H]1C[C@@H]2CC[C@@H](C)[C@@](O)(O2)C(=O)C(=O)N2CCCC[C@H]2C(=O)O[C@H]([C@H](C)C[C@@H]2CC[C@@H](OCCO)[C@H](OC)C2)CC(=O)[C@H](C)/C=C(\C)[C@@H](O)[C@@H](OC)C(=O)[C@H](C)C[C@H](C)/C=C/C=C/C=C/1C [EVEROLIMUS] | > 30 µM (inactive) | > 30 µM (inactive) | > 30 µM (inactive) | > 30 µM (inactive) | > 30 µM (inactive) | > 30 µM (inactive) | > 30 µM (inactive) | > 30 µM (inactive) | > 30 µM (inactive) |  | > 30 µM (inactive)
4 | COc1cc2nccc(Oc3ccc(NC(=O)NC4CC4)c(Cl)c3)c2cc1C(N)=O [LENVATINIB] | > 30 µM (inactive) | > 30 µM (inactive) | > 30 µM (inactive) | 0.565 µM (active) | > 30 µM (inactive) | > 30 µM (inactive) | > 30 µM (inactive) |  | > 30 µM (inactive) | > 30 µM (inactive) | > 30 µM (inactive)
5 | CN1CCN(c2ccc3nc(-c4c(N)c5c(F)cccc5[nH]c4=O)[nH]c3c2)CC1 [DOVITINIB] |  | > 30 µM (inactive) |  |  |  |  | > 30 µM (inactive) |  |  | > 30 µM (inactive) | 
6 | Cc1cc(Nc2cc(N3CCN(C)CC3)nc(/C=C/c3ccccc3)n2)n[nH]1 [ENMD-2076] | > 30 µM (inactive) | > 30 µM (inactive) |  |  |  | > 30 µM (inactive) | > 30 µM (inactive) |  | > 30 µM (inactive) |  | 
7 | CCn1c(-c2nonc2N)nc2c(C#CC(C)(C)O)ncc(OC[C@H]3CCCNC3)c21 [GSK-690693] |  | > 30 µM (inactive) |  |  |  |  | > 30 µM (inactive) |  |  | > 30 µM (inactive) | 
8 | O=C(Nc1cccc(Cl)c1)Nc1ncc(CCNc2ncnc3ccsc23)s1 [SNS-314] | > 30 µM (inactive) | > 30 µM (inactive) | > 30 µM (inactive) | > 30 µM (inactive) |  | > 30 µM (inactive) | > 30 µM (inactive) |  | > 30 µM (inactive) | > 30 µM (inactive) | 
9 | COc1cc2nccc(Oc3ccc(NC(=O)Nc4cc(C)on4)c(Cl)c3)c2cc1OC [TIVOZANIB] | > 30 µM (inactive) | > 30 µM (inactive) | > 30 µM (inactive) |  | 0.147 µM (active) | > 30 µM (inactive) | > 30 µM (inactive) | > 30 µM (inactive) | > 30 µM (inactive) | > 30 µM (inactive) | > 30 µM (inactive)
10 | C[C@@H](c1ccc2nccn2c1)n1nnc2ncc(-c3cnn(C)c3)nc21 [SAVOLITINIB] | > 30 µM (inactive) | > 30 µM (inactive) | > 30 µM (inactive) | > 30 µM (inactive) | > 30 µM (inactive) |  | > 30 µM (inactive) | > 30 µM (inactive) | > 30 µM (inactive) | > 30 µM (inactive) | 
11 | Cc1cn(-c2cc(NC(=O)c3ccc(C)c(Nc4nccc(-c5cccnc5)n4)c3)cc(C(F)(F)F)c2)cn1 [NILOTINIB] |  | > 30 µM (inactive) |  |  |  |  | > 30 µM (inactive) |  |  | > 30 µM (inactive) | 
12 | Nc1nc(N)c2nc(-c3cccc(O)c3)c(-c3cccc(O)c3)nc2n1 [TG100-115] |  | > 30 µM (inactive) |  |  |  |  | > 30 µM (inactive) | > 30 µM (inactive) |  | > 30 µM (inactive) | 
13 | COC(=O)[C@@]1(O)C[C@H]2O[C@]1(C)n1c3ccccc3c3c4c(c5c6ccccc6n2c5c31)C(=O)NC4 [K-252A] | > 30 µM (inactive) | > 30 µM (inactive) | > 30 µM (inactive) | 0.01 µM (active) | > 30 µM (inactive) | 15.3 µM (active) | > 30 µM (inactive) | > 30 µM (inactive) |  | > 30 µM (inactive) | > 30 µM (inactive)
14 | Cc1nc(N)sc1-c1ccnc(Nc2ccc(N3CCOCC3)cc2)n1 [CYC-116] | > 30 µM (inactive) | > 30 µM (inactive) | 0.007 µM | 2.14 µM (active) |  | 1.27 µM (active) | > 30 µM (inactive) |  |  | > 30 µM (inactive) | 
15 | Cc1c(F)cc(C(=O)NC2CC2)cc1-c1ccc(C(=O)NCC(C)(C)C)cn1 [LOSMAPIMOD] | > 30 µM (inactive) | > 30 µM (inactive) | > 30 µM (inactive) |  | > 30 µM (inactive) | > 30 µM (inactive) | > 30 µM (inactive) | > 30 µM (inactive) | > 30 µM (inactive) | > 30 µM (inactive) | > 30 µM (inactive)
16 | O=C(c1ccc(F)c(F)c1Nc1ccc(I)cc1F)N1CC(O)([C@@H]2CCCCN2)C1 [COBIMETINIB] | > 30 µM (inactive) | > 30 µM (inactive) |  | > 30 µM (inactive) | > 30 µM (inactive) | > 30 µM (inactive) | > 30 µM (inactive) | > 30 µM (inactive) | > 30 µM (inactive) | > 30 µM (inactive) | > 30 µM (inactive)
17 | C[C@@H](Nc1cc(F)cc(F)c1)c1cc(C(=O)N(C)C)cc2c(=O)cc(N3CCOCC3)oc12 [AZD-8186] | > 30 µM (inactive) | > 30 µM (inactive) | > 30 µM (inactive) | > 30 µM (inactive) | > 30 µM (inactive) | > 30 µM (inactive) | > 30 µM (inactive) | > 30 µM (inactive) | > 30 µM (inactive) | > 30 µM (inactive) | 
